Data as given in patent US6482921B1, “Uridyl peptide antibiotic (UPA) derivatives, their synthesis and use” (Essential Therapeutics, Inc., priority 1999, dated 2002).
Values after ≈ are worked out from the molar mass of the structure shown.

What was measured:
Type in all cases: cell-based
[1] = test system: Pseudomonas aeruginosa PAM 1323; assay: MIC broth microdilution, P. aeruginosa PAM 1323 (medium level UPA resistance)
[2] = test system: Pseudomonas aeruginosa PAM 1154; assay: MIC broth microdilution, P. aeruginosa PAM 1154 (OprM::Hg); conditions: P. aeruginosa PAM 1154 OprM::Hg
[3] = test system: Escherichia Coli MC 4100 AcrAB; assay: MIC broth microdilution, E. coli MC 4100 AcrAB (ΔAcrAB); conditions: E. coli AcrAB
[4] = test system: Staphylococcus aureus 8325-4; assay: MIC broth microdilution, S. aureus 8325-4 (wild type); conditions: S. aureus 8325-4
[5] = test system: Escherichia Coli MC 4100 AcrAB UPA3r; assay: MIC broth microdilution, E. coli MC 4100 AcrAB UPA3r (ΔAcrAB, UPA resistant); conditions: E. coli AcrAB UPA3^r
[6] = test system: Pasteurella multocida pm002; assay: MIC broth microdilution, P. multocida pm002 (wild type)
[7] = test system: Staphylococcus aureus ATCC 29213; assay: MIC broth microdilution, S. aureus ATCC 29213 (wild type); conditions: S. aureus ATCC 29213
Escherichia Coli MC 4100 = assay: MIC broth microdilution, E. coli MC 4100 (wild type); conditions: E. coli MC 4100
[8] = test system: Pseudomonas aeruginosa PAM 1135; assay: MIC broth microdilution, P. aeruginosa PAM 1135 (high level UPA resistance); conditions: P. aeruginosa PAM 1135 UPA1^r
[9] = test system: Pseudomonas aeruginosa PAM 1020; assay: MIC broth microdilution, P. aeruginosa PAM 1020 (wild type); conditions: P. aeruginosa PAM 1020

With `C[C@H](N)C(=O)N(C)[C@@H](C)[C@H](NC(=O)[C@H](Cc1ccc(C(F)(F)F)cc1)NC(=O)N[C@@H](Cc1ccc(O)cc1)C(=O)O)C(=O)NC[C@H]1C[C@@H](O)[C@H](n2ccc(=O)[nH]c2=O)O1` [Compound 145, 1-[5′-[(2S,3S)-N^3-L-Alanyl-N^2-[N-[[(1S)-1-carboxy-4-hydroxyphenethyl]carbamoyl]-L-4-(trifluoromethyl)phenylalanyl]-N^3-methyl-2,3-diaminobutyramido]-3′,5′-dideoxy-α-L-arabinofuranosyl]uracil] the “MIC (μg/ml) Broth microdilution” value [1] was >512 µg/mL, the “MIC (μg/ml) Broth microdilution” value [2] was 32 µg/mL (≈ 38.3 µM) and the “MIC (μg/ml) Broth microdilution” value [3] was 4 µg/mL (≈ 4.79 µM). For the same molecule, the “MIC (μg/ml) Broth microdilution” value [4] was >512 µg/mL, the “MIC (μg/ml) Broth microdilution” value [5] was 128 µg/mL (≈ 153 µM) and the “MIC (μg/ml) Broth microdilution” value [6] was 512 µg/mL (≈ 613 µM). The “MIC (μg/ml) Broth microdilution” value [7] was >512 µg/mL, the “MIC (μg/ml) Broth microdilution” value (Escherichia Coli MC 4100) was 512 µg/mL (≈ 613 µM) and the “MIC (μg/ml) Broth microdilution” value [8] was >512 µg/mL. For the same molecule, the “MIC (μg/ml) Broth microdilution” value [9] was 256 µg/mL (≈ 307 µM).

With `CC(N)C(=O)N(C)C(C)C(NC(=O)C(Cc1ccc(F)cc1)NC(=O)NC(C(=O)O)c1ccccc1)C(=O)NCC1CC(O)C(n2ccc(=O)[nH]c2=O)O1` (mixture of isomers) [Compound 142, 1-[5′-[(2S,3S)-N^3-L-Alanyl-N^2-[N-[[α(S,R)-1-carboxy-phenmethyl]carbamoyl]-L-4-fluorophenylalanyl]-N^3-methyl-2,3-diaminobutyramidol-3′,5′-dideoxy-α-L-arabinofuranosyl]uracil] the “MIC (μg/ml) Broth microdilution” value [1] was >512 µg/mL, the “MIC (μg/ml) Broth microdilution” value [2] was 64 µg/mL and the “MIC (μg/ml) Broth microdilution” value [3] was 4 µg/mL. The “MIC (μg/ml) Broth microdilution” value [4] was >512 µg/mL, the “MIC (μg/ml) Broth microdilution” value [5] was 32 µg/mL and the “MIC (μg/ml) Broth microdilution” value [6] was >512 µg/mL. The “MIC (μg/ml) Broth microdilution” value [7] was >512 µg/mL, the “MIC (μg/ml) Broth microdilution” value (Escherichia Coli MC 4100) was 512 µg/mL and the “MIC (μg/ml) Broth microdilution” value [8] was >512 µg/mL. The “MIC (μg/ml) Broth microdilution” value [9] was 512 µg/mL.

With `C[C@H](N)C(=O)N(C)[C@@H](C)[C@H](NC(=O)[C@H](Cc1ccccc1)NC(=O)N[C@@H](Cc1c[nH]cn1)C(=O)O)C(=O)NC[C@H]1C[C@@H](O)[C@H](n2ccc(=O)[nH]c2=O)O1` [Compound 149] the “MIC (μg/ml) Broth microdilution” value [1] was >512 µg/mL, the “MIC (μg/ml) Broth microdilution” value [2] was 8 µg/mL (≈ 10.8 µM) and the “MIC (μg/ml) Broth microdilution” value [3] was 16 µg/mL (≈ 21.6 µM). For the same molecule, the “MIC (μg/ml) Broth microdilution” value [4] was >512 µg/mL, the “MIC (μg/ml) Broth microdilution” value [5] was 64 µg/mL (≈ 86.4 µM) and the “MIC (μg/ml) Broth microdilution” value [6] was 256 µg/mL (≈ 346 µM). The “MIC (μg/ml) Broth microdilution” value [7] was >512 µg/mL, the “MIC (μg/ml) Broth microdilution” value (Escherichia Coli MC 4100) was 512 µg/mL (≈ 691 µM) and the “MIC (μg/ml) Broth microdilution” value [8] was >512 µg/mL. For the same molecule, the “MIC (μg/ml) Broth microdilution” value [9] was 512 µg/mL (≈ 691 µM).

With `CSCCC(N)C(=O)N(C)C(C)C(NC(=O)C(C)NC(=O)NC(Cc1c[nH]c2ccccc12)C(=O)O)C(=O)NCC1CC(O)C(n2ccc(=O)[nH]c2=O)O1` [Compound 168, 1-[5′-[(2S,3S)-N^2-[N-[[(1S)-1-Carboxy-2-indol-3-ylethyl]carbamoyl]-L-alanyl]-N^3-L-methionyl-N^3-methyl-2,3-diaminobutyramido]-3′,5′-dideoxy-α-L-arabinofuranosyl]uracil] the “MIC (μg/ml) Broth microdilution” value [1] was >512 µg/mL, the “MIC (μg/ml) Broth microdilution” value [2] was 8 µg/mL (≈ 10.3 µM) and the “MIC (μg/ml) Broth microdilution” value [3] was 4 µg/mL (≈ 5.17 µM). The “MIC (μg/ml) Broth microdilution” value [4] was >512 µg/mL, the “MIC (μg/ml) Broth microdilution” value [5] was 256 µg/mL (≈ 331 µM) and the “MIC (μg/ml) Broth microdilution” value [6] was 256 µg/mL (≈ 331 µM). The “MIC (μg/ml) Broth microdilution” value [7] was >512 µg/mL, the “MIC (μg/ml) Broth microdilution” value (Escherichia Coli MC 4100) was >512 µg/mL and the “MIC (μg/ml) Broth microdilution” value [8] was >512 µg/mL. The “MIC (μg/ml) Broth microdilution” value [9] was 64 µg/mL (≈ 82.7 µM).
